The values below come from patent US20240002326A1, “COMPOUNDS AND USE THEREOF IN METHODS OF TREATMENT” (The University of Queensland, priority 2016, published 2024).

The experiment concerns the target SOX18[109] HMG fragment (Mus musculus (Mouse), UniProt P43680). The experiment is described as follows: FP DNA-binding competition assay, SOX18[109] HMG fragment. As to conditions: for remaining activity at 50 µM: read-out: FP bound fraction (%) 50 μM; for remaining activity at 200 µM: read-out: FP bound fraction (%) 200 μM. The procedure, abridged: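 Fluorescence polarization competition using mouse SOX18[109] fragment (residues 69-177, HMG box plus flanks) at 60 nM with 5 nM 5′-FAM 40 bp Prox1 DNA in 10 mM Tris pH 8.0, 100 mM NaCl, 2-3.33% DMSO. Agitated 5 min RT, 10 min 37° C, 30 min RT, then read (ex 485/em 525 nm), triplicates.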

Sequence of SOX18[109] HMG fragment (P43680 69-177): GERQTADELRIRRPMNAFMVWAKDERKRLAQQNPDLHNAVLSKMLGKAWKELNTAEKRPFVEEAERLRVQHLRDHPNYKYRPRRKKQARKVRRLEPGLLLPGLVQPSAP

With `Oc1cc(CCc2ccccc2)cc(O)c1O` [Sm40, 5-phenethylbenzene-1,2,3-triol], the remaining activity at 50 µM (50 μM, SOX18/DNA binding) was found to be 101 ± 12.1%. Further, the remaining activity at 200 µM (200 μM, SOX18/DNA binding) came out at 92.7 ± 14.7%. In addition, for the setting “SAR library, SOX18[109]”, the “SOX18-DNA binding inhibition (FP, words)” value is “not active”.

Turning to `COc1cc(C)cc(/C=C/c2ccc3ccccc3c2)c1C(=O)O` [Sm34, (E)-2-methoxy-4-methyl-6-(2-(naphthalen-2-yl)vinyl)benzoic acid], the remaining activity at 50 µM (50 μM, SOX18/DNA binding) was 94.2 ± 1.9%. For the same compound, where the note is “200 μM, SOX18/DNA binding”, the remaining activity at 200 µM is 101 ± 1.5%.

Regarding `CCN(CC)C(=O)c1c(O)cc(O)cc1CCc1ccc2ccccc2c1` [Sm26, N,N,diethyl-2,4-hydroxy-6-(2-(naphthalen-2-yl)ethyl)benzamide], the “FP bound fraction (%) 50 μM” value (50 μM, SOX18/DNA binding) is 98.5 ± 5.9%. Besides, the “FP bound fraction (%) 200 μM” value (200 μM, SOX18/DNA binding) amounted to 128.3 ± 17.2%.
